# PubChem BioAssay (NCI)
# Where “and” joins values, the source holds several entries; their conditions need not be identical. Identical values can stand only once.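 Method: 48-hour compound exposure of cells in 96-well plates, five concentrations, linear interpolation of endpoints. Here, GI50 denotes the concentration required for 50% inhibition of growth. Definition used: TGI = concentration required for complete inhibition of growth.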
# Tested on: K-562 leukemia
# Assay: DTP human tumour cell line panel, 48 h
SMILES,TGI,GI50
NS(=O)(=O)c1ccc(NC2(C(=O)O)CCCC2)cc1,> 100 µM,
O=C(O)C1OC(n2cc(F)c(=O)[nH]c2=O)CC1O (configuration not stated),> 100 µM,
N=C1C(c2nc3ccccc3s2)=C(O)CN1c1cc(C(F)(F)F)ccc1Cl,21.3 µM,3.61 µM
CC(=O)CSCc1ccccn1,82.3 µM,
CCOC(=O)[C@@H](N)CCC(=O)N[C@@H](CSCc1ccccc1)C(=O)N[C@@H](C(=O)OCC)c1ccccc1,75 µM,22.2 µM
COc1ccc(Nc2c3ccccc3nc3occc23)cc1,,0.292 µM
CC(=O)/C(C)=N/NC(=O)c1ccccc1O,> 100 µM,
CCCCCCCC/C=C/CCCCCCCC(=O)OC[C@H]1O[C@@H](n2ccc(N)nc2=O)C(F)(F)[C@@H]1O,> 100 µM,0.307 µM
NS(=O)(=O)c1ccc(N=Nc2c(O)[nH]c3ccc(-c4cnco4)cc23)cc1,> 25 µM,> 25 µM
N#C/C(=C1C=C(Br)/C(=N\O)C=C\1Cl)c1cccc2ccccc12,14.3 µM,
COC(=O)[C@@H](C)CNS(=O)(=O)N(c1cc(C(F)(F)F)cc(C(F)(F)F)c1)C1CCN(Cc2ccc(F)cc2)CC1,16 µM,4.63 µM
C=C1C(=O)O[C@@H]2/C=C(\C)CC/C=C(/COC(C)=O)C[C@@H](OC(C)=O)[C@@H]12,> 33.8 µM,
COC(=O)[C@H](C)NC(=O)NC(=O)NC(=O)CI,17 µM,4.16 µM
COc1cc2c(c(OC)c1OC)-c1ccc(OC)c(=O)cc1[C@@H](NC(=O)c1ccccc1)CC2,,< 0.003 µM
CN1c2ccc(Cl)cc2C(=O)NC1c1ccc([N+](=O)[O-])s1 (configuration not stated),34.8 µM,

# Tested on: OVCAR-8 ovarian
# Assay: DTP human tumour cell line panel, 48 h
SMILES,GI50,TGI
CN1CCN(CCCOc2ccc3nc(Nc4ccc(Cl)c(C(F)(F)F)c4)ccc3c2)CC1,16.4 µM,32.4 µM
CC(C)n1nc(-c2cc3cc(O)ccc3[nH]2)c2c(N)ncnc21,0.314 µM,3.21 µM
CCCCC(O)(c1ccc(Cl)cc1)C(CN1CCOCC1)c1ccc(Cl)cc1 (configuration not stated),15.7 µM,42 µM
OC[C@H]1CCCC1O (some centres not stated),,> 100 µM
O=C(N/N=C/c1ccc(Cl)cc1)c1ccc(C(F)(F)F)nc1Nc1cccc(C(F)(F)F)c1,2.23 µM,15.1 µM
COc1cc2ncnc(Nc3ccc(C)c(O)c3)c2cc1OC,11.2 µM,> 25 µM
O=C1OC(C(O)CO)C(=O)C1=O (configuration not stated),5270 µM,> 10000 µM
COC(=O)C1=CNC=C(C(=O)OC)C1C1=CC(=O)C(C)=CC1=O,14.3 µM,29.1 µM
C=C1C(=O)O[C@H]2[C@H]1CC/C(COC(=O)C(=O)c1cn(Cc3ccccc3)c3ccccc13)=C\CC[C@@]1(C)O[C@@H]21,3.04 µM,11.4 µM
Cc1cc(S(=O)(=O)Nc2nnc(-c3ccccc3)c(-c3ccccc3)n2)c(SCC(N)=O)cc1Cl,32.5 µM,87 µM
COc1ccc(/C=C/c2ccnc3ccccc23)c(OC)c1,,> 10 µM
COC(C(O)CO)C(O)C(O)C(=O)NNc1ccccc1 (configuration not stated),,> 100 µM
NS(=O)(=O)c1ccc(NC2(C(=O)O)CCCC2)cc1,,> 100 µM
O=C(O)C1OC(n2cc(F)c(=O)[nH]c2=O)CC1O (configuration not stated),,> 100 µM
N=C1C(c2nc3ccccc3s2)=C(O)CN1c1cc(C(F)(F)F)ccc1Cl,32.9 µM,> 100 µM
CC(=O)CSCc1ccccn1,,> 100 µM
COc1ccccc1CNCCCN1C(=O)c2ccc3c4c(ccc(c24)C1=O)C(=O)N(CCCOCCCCOCCCN)C3=O,0.473 µM,2.08 µM
CCOC(=O)[C@@H](N)CCC(=O)N[C@@H](CSCc1ccccc1)C(=O)N[C@@H](C(=O)OCC)c1ccccc1,16.8 µM,32.5 µM
COc1ccc(Nc2c3ccccc3nc3occc23)cc1,5.71 µM,> 100 µM
CC(=O)/C(C)=N/NC(=O)c1ccccc1O,> 100 µM,> 100 µM
CCCCCCCC/C=C/CCCCCCCC(=O)OC[C@H]1O[C@@H](n2ccc(N)nc2=O)C(F)(F)[C@@H]1O,< 0.01 µM,
NS(=O)(=O)c1ccc(N=Nc2c(O)[nH]c3ccc(-c4cnco4)cc23)cc1,> 19.2 µM,> 25 µM
N#C/C(=C1C=C(Br)/C(=N\O)C=C\1Cl)c1cccc2ccccc12,,52.7 µM
COc1cc2nc3cc([N+](=O)[O-])ccc3c(NCCCNCCO)c2cc1OC,0.202 µM,0.721 µM
COC(=O)[C@@H](C)CNS(=O)(=O)N(c1cc(C(F)(F)F)cc(C(F)(F)F)c1)C1CCN(Cc2ccc(F)cc2)CC1,14.6 µM,33.4 µM
C=C1C(=O)O[C@@H]2/C=C(\C)CC/C=C(/COC(C)=O)C[C@@H](OC(C)=O)[C@@H]12,,> 55.3 µM
COC(=O)[C@H](C)NC(=O)NC(=O)NC(=O)CI,16.6 µM,33.9 µM
COc1cc2c(c(OC)c1OC)-c1ccc(OC)c(=O)cc1[C@@H](NC(=O)c1ccccc1)CC2,0.00935 µM and 0.0138 µM,30 µM and 13.8 µM
CN1c2ccc(Cl)cc2C(=O)NC1c1ccc([N+](=O)[O-])s1 (configuration not stated),,38.9 µM

# Tested on: NCI-H23 lung
# Assay: DTP human tumour cell line panel, 48 h
SMILES,GI50,TGI
CN1CCN(CCCOc2ccc3nc(Nc4ccc(Cl)c(C(F)(F)F)c4)ccc3c2)CC1,13.9 µM,29.3 µM
CC(C)n1nc(-c2cc3cc(O)ccc3[nH]2)c2c(N)ncnc21,0.317 µM,9.19 µM
CCCCC(O)(c1ccc(Cl)cc1)C(CN1CCOCC1)c1ccc(Cl)cc1 (configuration not stated),10.6 µM,28.7 µM
OC[C@H]1CCCC1O (some centres not stated),,> 100 µM
O=C(N/N=C/c1ccc(Cl)cc1)c1ccc(C(F)(F)F)nc1Nc1cccc(C(F)(F)F)c1,2.31 µM,8.74 µM
COc1cc2ncnc(Nc3ccc(C)c(O)c3)c2cc1OC,> 25 µM,> 25 µM
O=C1OC(C(O)CO)C(=O)C1=O (configuration not stated),4680 µM,> 10000 µM
COC(=O)C1=CNC=C(C(=O)OC)C1C1=CC(=O)C(C)=CC1=O,16.5 µM,31 µM
C=C1C(=O)O[C@H]2[C@H]1CC/C(COC(=O)C(=O)c1cn(Cc3ccccc3)c3ccccc13)=C\CC[C@@]1(C)O[C@@H]21,1.67 µM,3.56 µM
Cc1cc(S(=O)(=O)Nc2nnc(-c3ccccc3)c(-c3ccccc3)n2)c(SCC(N)=O)cc1Cl,78.7 µM,> 100 µM
COC(C(O)CO)C(O)C(O)C(=O)NNc1ccccc1 (configuration not stated),,> 100 µM
NS(=O)(=O)c1ccc(NC2(C(=O)O)CCCC2)cc1,,> 100 µM
O=C(O)C1OC(n2cc(F)c(=O)[nH]c2=O)CC1O (configuration not stated),,> 100 µM
N=C1C(c2nc3ccccc3s2)=C(O)CN1c1cc(C(F)(F)F)ccc1Cl,26.3 µM,> 100 µM
CC(=O)CSCc1ccccn1,,> 100 µM
COc1ccccc1CNCCCN1C(=O)c2ccc3c4c(ccc(c24)C1=O)C(=O)N(CCCOCCCCOCCCN)C3=O,0.604 µM,2.58 µM
CCOC(=O)[C@@H](N)CCC(=O)N[C@@H](CSCc1ccccc1)C(=O)N[C@@H](C(=O)OCC)c1ccccc1,18.8 µM,40.9 µM
COc1ccc(Nc2c3ccccc3nc3occc23)cc1,3.72 µM,> 27.6 µM
CC(=O)/C(C)=N/NC(=O)c1ccccc1O,> 100 µM,> 100 µM
CCCCCCCC/C=C/CCCCCCCC(=O)OC[C@H]1O[C@@H](n2ccc(N)nc2=O)C(F)(F)[C@@H]1O,< 0.0143 µM,21.1 µM
NS(=O)(=O)c1ccc(N=Nc2c(O)[nH]c3ccc(-c4cnco4)cc23)cc1,> 25 µM,> 25 µM
N#C/C(=C1C=C(Br)/C(=N\O)C=C\1Cl)c1cccc2ccccc12,,36.3 µM
COc1cc2nc3cc([N+](=O)[O-])ccc3c(NCCCNCCO)c2cc1OC,0.143 µM,0.616 µM
COC(=O)[C@@H](C)CNS(=O)(=O)N(c1cc(C(F)(F)F)cc(C(F)(F)F)c1)C1CCN(Cc2ccc(F)cc2)CC1,12.2 µM,25.9 µM
C=C1C(=O)O[C@@H]2/C=C(\C)CC/C=C(/COC(C)=O)C[C@@H](OC(C)=O)[C@@H]12,,32.5 µM
COC(=O)[C@H](C)NC(=O)NC(=O)NC(=O)CI,16.8 µM,36.9 µM
COc1cc2c(c(OC)c1OC)-c1ccc(OC)c(=O)cc1[C@@H](NC(=O)c1ccccc1)CC2,,2.32 µM

# Tested on: A549 NSCLC
# Assay: DTP human tumour cell line panel, 48 h
SMILES,GI50,TGI
CN1CCN(CCCOc2ccc3nc(Nc4ccc(Cl)c(C(F)(F)F)c4)ccc3c2)CC1,14.7 µM,28.9 µM
